According to ChEMBL document CHEMBL1130570, “Cyclic saligenyl phosphotriesters of 2,3-dideoxy-2,3-didehydrothymidine (d4T) a new pro-nucleotide approach” (Bioorg Med Chem Lett, 1997):
Converted amounts (≈) assume the structure as drawn.

Assays:
[1] = Partition coefficient in 1-octanol / phosphate buffer at pH 6.8; assay type: physicochemical; conditions: octanol/water
[2] = test system: CCRF-CEM; assay: Effective concentration that causes 50 % inhibition of HIV-2 in CEM/TK- cells, was determined.; assay type: functional, cell-based; conditions: Homo sapiens
[3] = test system: CCRF-CEM; assay: Effective concentration that causes 50 % inhibition of HIV-2 in CEM/0 cells, was determined.; assay type: functional, cell-based; conditions: Homo sapiens
[4] = test system: CCRF-CEM; assay: Effective concentration that causes 50 % inhibition of HIV-1 in CEM/0 cells, was determined.; assay type: functional, cell-based; conditions: Homo sapiens

| SMILES | PC [1] | EC50 [2] [µg/mL] | EC50 [3] [µg/mL] | EC50 [4] [µg/mL] |
| --- | --- | --- | --- | --- |
| Cc1ccc2c(c1)COP(=O)(OC[C@@H]1C=C[C@H](n3cc(C)c(=O)[nH]c3=O)O1)O2 (some centres undefined) | 5.4 | – | – | – |
| Cc1cn([C@H]2C=C[C@@H](COP3(=O)OCc4cc(Cl)ccc4O3)O2)c(=O)[nH]c1=O (some centres undefined) | 7.7 | 20 (≈ 46.9 µM) | 0.25 (≈ 0.586 µM) | 0.18 (≈ 0.422 µM) |
| Cc1cn([C@H]2C=C[C@@H](COP3(=O)OCc4cc([N+](=O)[O-])ccc4O3)O2)c(=O)[nH]c1=O (some centres undefined) | 1.5 | 40 (≈ 91.5 µM) | 0.4 (≈ 0.915 µM) | 0.29 (≈ 0.663 µM) |
| Cc1cn([C@H]2C=C[C@@H](COP3(=O)OCc4ccccc4O3)O2)c(=O)[nH]c1=O (some centres undefined) | 1.9 | – | – | – |
| Cc1cn([C@H]2C=C[C@@H](CO)O2)c(=O)[nH]c1=O [STAVUDINE] | 0.15 | 45 (≈ 201 µM) | 1.45 (≈ 6.47 µM) | 0.4 (≈ 1.78 µM) |
